Reference: ChEMBL document CHEMBL3046135, “Iodine (III)-mediated synthesis of some 2-aryl/hetarylbenzoxazoles as antibacterial/antifungal agents” (2010)
Active and inactive are the calls of the source. The calls are words filed in the database; no cut-off is given here.

Columns and labels:
Assay type in all cases: functional
Aspergillus niger [1] = assay: Antifungal activity against Aspergillus niger at 100 ug/ml after 96 hr
Bacillus subtilis [2] = assay: Antibacterial activity against Bacillus subtilis MTCC 121 at 10 ug/ml after 24 hr by agar well diffusion method
Bacillus subtilis [3] = assay: Antibacterial activity against Bacillus subtilis MTCC 121 at 100 ug/ml after 24 hr by agar well diffusion method
[4] = system: Geobacillus stearothermophilus; assay: Antibacterial activity against Geobacillus stearothermophilus MTCC 8508 at 10 ug/ml after 24 hr by agar well diffusion method
Pseudomonas putida [5] = assay: Antibacterial activity against Pseudomonas putida at 10 ug/ml after 24 hr by agar well diffusion method
Aspergillus flavus [6] = assay: Antifungal activity against Aspergillus flavus at 10 ug/ml after 96 hr
[7] = system: Geobacillus stearothermophilus; assay: Antibacterial activity against Geobacillus stearothermophilus MTCC 8508 at 50 ug/ml after 24 hr by agar well diffusion method
Aspergillus niger [8] = assay: Antifungal activity against Aspergillus niger at 50 ug/ml after 96 hr
Pseudomonas putida [9] = assay: Antibacterial activity against Pseudomonas putida at 50 ug/ml after 24 hr by agar well diffusion method
Bacillus subtilis [10] = assay: Antibacterial activity against Bacillus subtilis MTCC 121 at 50 ug/ml after 24 hr by agar well diffusion method
Escherichia coli [11] = assay: Antibacterial activity against Escherichia coli MTCC 51 at 100 ug/ml after 24 hr by agar well diffusion method
[12] = system: Geobacillus stearothermophilus; assay: Antibacterial activity against Geobacillus stearothermophilus MTCC 8508 at 100 ug/ml after 24 hr by agar well diffusion method
Aspergillus niger [13] = assay: Antifungal activity against Aspergillus niger at 10 ug/ml after 96 hr
Aspergillus flavus [14] = assay: Antifungal activity against Aspergillus flavus at 100 ug/ml after 96 hr
Aspergillus flavus [15] = assay: Antifungal activity against Aspergillus flavus at 50 ug/ml after 96 hr
Pseudomonas putida [16] = assay: Antibacterial activity against Pseudomonas putida at 100 ug/ml after 24 hr by agar well diffusion method
Escherichia coli [17] = assay: Antibacterial activity against Escherichia coli MTCC 51 at 10 ug/ml after 24 hr by agar well diffusion method
Escherichia coli [18] = assay: Antibacterial activity against Escherichia coli MTCC 51 at 50 ug/ml after 24 hr by agar well diffusion method

Row | SMILES | inhibition at 100 µg/mL (Aspergillus niger [1]) | diameter of the inhibition zone (DIZ) (Bacillus subtilis [2]) | diameter of the inhibition zone (DIZ) (Bacillus subtilis [3]) | diameter of the inhibition zone (DIZ) [4] | diameter of the inhibition zone (DIZ) (Pseudomonas putida [5]) | inhibition at 10 µg/mL (Aspergillus flavus [6]) | diameter of the inhibition zone (DIZ) [7] | inhibition at 50 µg/mL (Aspergillus niger [8]) | diameter of the inhibition zone (DIZ) (Pseudomonas putida [9]) | diameter of the inhibition zone (DIZ) (Bacillus subtilis [10]) | diameter of the inhibition zone (DIZ) (Escherichia coli [11]) | diameter of the inhibition zone (DIZ) [12] | inhibition at 10 µg/mL (Aspergillus niger [13]) | inhibition at 100 µg/mL (Aspergillus flavus [14]) | inhibition at 50 µg/mL (Aspergillus flavus [15]) | diameter of the inhibition zone (DIZ) (Pseudomonas putida [16]) | diameter of the inhibition zone (DIZ) (Escherichia coli [17]) | diameter of the inhibition zone (DIZ) (Escherichia coli [18])
1 | Cc1ccc(-c2nc3cc(Cl)ccc3o2)s1 [5-CHLORO-2-(5-METHYLTHIOPHEN-2-YL)BENZO[D]OXAZOLE] | 71.9% | inactive | 16.66% | inactive | inactive | 13.7% | 12.66% | 63.9% | 18.33% | 10.33% | 31.74% | 18.47% | 12.4% | 37.5% | 24.9% | 32.66% | inactive | 17.44%
2 | Cc1ccc(-c2nc3cc(Cl)ccc3o2)cc1 | 21.4% | 17.22% | 42.13% | 17.92% | 14.22% | 20.1% | 30.87% | 7.47% | 54.56% | 31.37% | 43.33% | 43.33% | 4.19% | 66.9% | 43.2% | 73.47% | 18.62% | 32.77%
3 | c1csc(-c2nc3ccccc3o2)c1 | 82.3% | 12.66% | 31.72% | 10.33% | 9.66% | 21.1% | 20.43% | 64.7% | 24.34% | 21.26% | 36.66% | 31.33% | 41.7% | 88.5% | 63.1% | 33.33% | 11.66% | 26.28%
4 | Cc1ccsc1-c1nc2cc(Cl)ccc2o1 [5-CHLORO-2-(3-METHYLTHIOPHEN-2-YL)BENZO[D]OXAZOLE] | 76.5% | 10.34% | 29.33% | 12.66% | 12.12% | 21.1% | 23.44% | 47% | 25.67% | 21.67% | 33.17% | 31.84% | 17.5% | 84.2% | 36.8% | 35.06% | 10.33% | 24.56%
5 | Clc1ccc2oc(-c3cccs3)nc2c1 | 11.8% | 19.66% | 41.66% | 21.33% | 19.66% | 21.1% | 32.66% | 5.88% | 33.66% | 30.53% | 43.33% | 39.66% | 4.89% | 84.2% | 47.4% | 44.77% | 17.74% | 31.77%
6 | O=[N+]([O-])c1ccc(-c2nc3cc(Cl)ccc3o2)cc1 | 73.6% | inactive | 17.22% | inactive | inactive | 19.9% | 12.26% | 66.9% | 18.13% | 10.13% | 30.24% | 19.37% | 43.2% | 78.5% | 49.6% | 31.16% | inactive | 17.14%
